Columns and labels:
HT-29 = assay: Inhibition of TNF-alpha induced necroptosis in human HT-29 cells assessed as increase in cell viability incubated for 24 hrs in presence of zVAD and SMAC007 by Cell Titer-Glo luminescent cell viability assay; format: functional, cell-based; conditions: dose 0.01-3 µM
[1] = biological target: Dual specificity tyrosine-phosphorylation-regulated kinase 1A (Homo sapiens) (UniProt Q13627); assay: Residual activity of human DYRK1/DYRK1A using RRRFRPASPLRGPPK as substrate at 1 uM in presence of 32P-ATP by Hotspot assay relative to control
[2] = biological target: Mitogen-activated protein kinase 9 (Homo sapiens) (UniProt P45984); assay: Inhibition of human JNK2 using ATF2 as substrate at 1 uM in presence of 32P-ATP by Hotspot assay relative to control; values are per cent of control
[3] = biological target: G protein-coupled receptor kinase 4 (Homo sapiens) (UniProt P32298); assay: Inhibition of human GRK4 using casein as substrate at 1 uM in presence of 32P-ATP by Hotspot assay relative to control; values are per cent of control
[4] = biological target: Activated CDC42 kinase 1 (Homo sapiens) (UniProt Q07912); assay: Inhibition of human ACK1 using EAIYAAPFAKKK as substrate at 1 uM in presence of 32P-ATP by Hotspot assay relative to control; values are per cent of control
[5] = biological target: T1, Inhibitor of nuclear factor kappa-B kinase subunit epsilon (Homo sapiens) (UniProt Q14164); assay: Inhibition of human IKKe/IKBKE using casein as substrate at 1 uM in presence of 32P-ATP by Hotspot assay relative to control; values are per cent of control
T1 sequence (whole entry): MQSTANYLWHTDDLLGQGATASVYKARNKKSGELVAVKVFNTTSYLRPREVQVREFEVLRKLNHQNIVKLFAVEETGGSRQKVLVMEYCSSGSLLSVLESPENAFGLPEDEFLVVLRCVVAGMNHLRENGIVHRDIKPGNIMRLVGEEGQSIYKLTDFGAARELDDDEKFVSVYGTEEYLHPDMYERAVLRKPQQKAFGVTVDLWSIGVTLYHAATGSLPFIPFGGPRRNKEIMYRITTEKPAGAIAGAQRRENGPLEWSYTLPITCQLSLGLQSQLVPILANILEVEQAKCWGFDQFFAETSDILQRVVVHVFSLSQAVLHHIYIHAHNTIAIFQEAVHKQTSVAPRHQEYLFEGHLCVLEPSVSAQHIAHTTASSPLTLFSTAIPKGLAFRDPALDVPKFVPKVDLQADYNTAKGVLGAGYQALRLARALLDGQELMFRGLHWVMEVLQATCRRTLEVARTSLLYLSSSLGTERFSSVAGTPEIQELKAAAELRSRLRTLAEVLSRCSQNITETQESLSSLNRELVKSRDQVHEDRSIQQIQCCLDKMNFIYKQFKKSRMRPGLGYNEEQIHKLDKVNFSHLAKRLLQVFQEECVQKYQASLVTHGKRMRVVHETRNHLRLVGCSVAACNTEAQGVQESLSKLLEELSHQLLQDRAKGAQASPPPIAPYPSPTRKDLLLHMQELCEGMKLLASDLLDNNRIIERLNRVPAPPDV

[6] = biological target: T2, Aurora kinase C (Homo sapiens) (UniProt Q9UQB9); assay: Inhibition of human Aurora C using H-LRRASLG as substrate at 1 uM in presence of 32P-ATP by Hotspot assay relative to control; values are per cent of control
T2 sequence (whole entry): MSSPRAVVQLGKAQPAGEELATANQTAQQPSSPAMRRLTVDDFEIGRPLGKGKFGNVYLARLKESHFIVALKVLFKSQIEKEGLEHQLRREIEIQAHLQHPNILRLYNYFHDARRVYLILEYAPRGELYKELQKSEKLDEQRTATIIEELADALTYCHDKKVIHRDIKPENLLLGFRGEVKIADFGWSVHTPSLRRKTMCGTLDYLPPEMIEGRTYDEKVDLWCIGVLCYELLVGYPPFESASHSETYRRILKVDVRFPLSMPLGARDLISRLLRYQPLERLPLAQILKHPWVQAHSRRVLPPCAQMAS

[7] = biological target: Leucine-rich repeat serine/threonine-protein kinase 2 (Homo sapiens) (UniProt Q5S007); assay: Inhibition of human LRRK2 using RLGRDKYKTLRQIRQ as substrate at 1 uM in presence of 32P-ATP by Hotspot assay relative to control; values are per cent of control
[8] = biological target: Tyrosine-protein kinase receptor UFO (Homo sapiens) (UniProt P30530); assay: Inhibition of human AXL using poly[Glu:Tyr] (4:1) as substrate at 1 uM in presence of 32P-ATP by Hotspot assay relative to control; values are per cent of control
[9] = biological target: Protein-tyrosine kinase 6 (Homo sapiens) (UniProt Q13882); assay: Inhibition of human BRK using poly[Glu:Tyr] (4:1) as substrate at 1 uM in presence of 32P-ATP by Hotspot assay relative to control; values are per cent of control
[10] = biological target: Casein kinase I isoform gamma-1 (Homo sapiens) (UniProt Q9HCP0); assay: Inhibition of human CK1g1 using KRRRAL[pS]VASLPGL as substrate at 1 uM in presence of 32P-ATP by Hotspot assay relative to control; values are per cent of control
[11] = biological target: Mitogen-activated protein kinase kinase kinase 8 (Homo sapiens) (UniProt P41279); assay: Inhibition of human COT1/MAP3K8 using MEK1 (K97R) as substrate at 1 uM in presence of 32P-ATP by Hotspot assay relative to control; values are per cent of control
[12] = biological target: Tyrosine-protein kinase CSK (Homo sapiens) (UniProt P41240); assay: Inhibition of human CSK using poly[Glu:Tyr] (4:1) as substrate at 1 uM in presence of 32P-ATP by Hotspot assay relative to control; values are per cent of control
[13] = biological target: Tyrosine-protein kinase Fer (Homo sapiens) (UniProt P16591); assay: Inhibition of human FER using poly[Glu:Tyr] (4:1) as substrate at 1 uM in presence of 32P-ATP by Hotspot assay relative to control; values are per cent of control
[14] = biological target: Cyclin-dependent kinase 2/cyclin E1 (Homo sapiens) (UniProt P24864+P24941); assay: Inhibition of human CDK2/cyclin E using RB Protein as substrate at 1 uM in presence of 32P-ATP by Hotspot assay relative to control; values are per cent of control

Mitogen-activated protein kinase 9 (Homo sapiens), sequence (P45984 whole entry, looked up): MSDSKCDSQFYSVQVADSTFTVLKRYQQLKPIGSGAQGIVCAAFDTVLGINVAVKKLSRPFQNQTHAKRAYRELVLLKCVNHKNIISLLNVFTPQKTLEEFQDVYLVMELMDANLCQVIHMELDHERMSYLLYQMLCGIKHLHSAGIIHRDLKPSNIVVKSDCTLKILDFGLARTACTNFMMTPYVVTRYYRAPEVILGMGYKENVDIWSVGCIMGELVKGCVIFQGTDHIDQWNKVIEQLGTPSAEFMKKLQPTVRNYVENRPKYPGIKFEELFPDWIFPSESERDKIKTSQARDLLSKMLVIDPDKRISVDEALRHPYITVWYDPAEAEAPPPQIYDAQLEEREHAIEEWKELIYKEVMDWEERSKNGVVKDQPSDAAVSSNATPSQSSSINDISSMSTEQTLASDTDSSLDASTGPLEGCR
Tyrosine-protein kinase CSK (Homo sapiens), sequence (P41240 2-450 limits assumed): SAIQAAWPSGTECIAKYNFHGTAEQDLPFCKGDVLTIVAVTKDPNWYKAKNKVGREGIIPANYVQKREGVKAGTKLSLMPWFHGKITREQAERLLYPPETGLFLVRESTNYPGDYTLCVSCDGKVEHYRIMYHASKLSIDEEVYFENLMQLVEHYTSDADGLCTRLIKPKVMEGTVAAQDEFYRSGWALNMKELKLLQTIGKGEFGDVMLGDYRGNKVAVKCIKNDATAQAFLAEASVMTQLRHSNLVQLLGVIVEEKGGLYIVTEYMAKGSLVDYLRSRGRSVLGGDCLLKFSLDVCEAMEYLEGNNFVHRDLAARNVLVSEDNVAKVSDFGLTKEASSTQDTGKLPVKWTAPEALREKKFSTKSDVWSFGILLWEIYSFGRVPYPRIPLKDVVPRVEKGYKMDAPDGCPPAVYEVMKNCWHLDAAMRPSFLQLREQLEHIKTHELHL
Leucine-rich repeat serine/threonine-protein kinase 2 (Homo sapiens), sequence (Q5S007 whole entry): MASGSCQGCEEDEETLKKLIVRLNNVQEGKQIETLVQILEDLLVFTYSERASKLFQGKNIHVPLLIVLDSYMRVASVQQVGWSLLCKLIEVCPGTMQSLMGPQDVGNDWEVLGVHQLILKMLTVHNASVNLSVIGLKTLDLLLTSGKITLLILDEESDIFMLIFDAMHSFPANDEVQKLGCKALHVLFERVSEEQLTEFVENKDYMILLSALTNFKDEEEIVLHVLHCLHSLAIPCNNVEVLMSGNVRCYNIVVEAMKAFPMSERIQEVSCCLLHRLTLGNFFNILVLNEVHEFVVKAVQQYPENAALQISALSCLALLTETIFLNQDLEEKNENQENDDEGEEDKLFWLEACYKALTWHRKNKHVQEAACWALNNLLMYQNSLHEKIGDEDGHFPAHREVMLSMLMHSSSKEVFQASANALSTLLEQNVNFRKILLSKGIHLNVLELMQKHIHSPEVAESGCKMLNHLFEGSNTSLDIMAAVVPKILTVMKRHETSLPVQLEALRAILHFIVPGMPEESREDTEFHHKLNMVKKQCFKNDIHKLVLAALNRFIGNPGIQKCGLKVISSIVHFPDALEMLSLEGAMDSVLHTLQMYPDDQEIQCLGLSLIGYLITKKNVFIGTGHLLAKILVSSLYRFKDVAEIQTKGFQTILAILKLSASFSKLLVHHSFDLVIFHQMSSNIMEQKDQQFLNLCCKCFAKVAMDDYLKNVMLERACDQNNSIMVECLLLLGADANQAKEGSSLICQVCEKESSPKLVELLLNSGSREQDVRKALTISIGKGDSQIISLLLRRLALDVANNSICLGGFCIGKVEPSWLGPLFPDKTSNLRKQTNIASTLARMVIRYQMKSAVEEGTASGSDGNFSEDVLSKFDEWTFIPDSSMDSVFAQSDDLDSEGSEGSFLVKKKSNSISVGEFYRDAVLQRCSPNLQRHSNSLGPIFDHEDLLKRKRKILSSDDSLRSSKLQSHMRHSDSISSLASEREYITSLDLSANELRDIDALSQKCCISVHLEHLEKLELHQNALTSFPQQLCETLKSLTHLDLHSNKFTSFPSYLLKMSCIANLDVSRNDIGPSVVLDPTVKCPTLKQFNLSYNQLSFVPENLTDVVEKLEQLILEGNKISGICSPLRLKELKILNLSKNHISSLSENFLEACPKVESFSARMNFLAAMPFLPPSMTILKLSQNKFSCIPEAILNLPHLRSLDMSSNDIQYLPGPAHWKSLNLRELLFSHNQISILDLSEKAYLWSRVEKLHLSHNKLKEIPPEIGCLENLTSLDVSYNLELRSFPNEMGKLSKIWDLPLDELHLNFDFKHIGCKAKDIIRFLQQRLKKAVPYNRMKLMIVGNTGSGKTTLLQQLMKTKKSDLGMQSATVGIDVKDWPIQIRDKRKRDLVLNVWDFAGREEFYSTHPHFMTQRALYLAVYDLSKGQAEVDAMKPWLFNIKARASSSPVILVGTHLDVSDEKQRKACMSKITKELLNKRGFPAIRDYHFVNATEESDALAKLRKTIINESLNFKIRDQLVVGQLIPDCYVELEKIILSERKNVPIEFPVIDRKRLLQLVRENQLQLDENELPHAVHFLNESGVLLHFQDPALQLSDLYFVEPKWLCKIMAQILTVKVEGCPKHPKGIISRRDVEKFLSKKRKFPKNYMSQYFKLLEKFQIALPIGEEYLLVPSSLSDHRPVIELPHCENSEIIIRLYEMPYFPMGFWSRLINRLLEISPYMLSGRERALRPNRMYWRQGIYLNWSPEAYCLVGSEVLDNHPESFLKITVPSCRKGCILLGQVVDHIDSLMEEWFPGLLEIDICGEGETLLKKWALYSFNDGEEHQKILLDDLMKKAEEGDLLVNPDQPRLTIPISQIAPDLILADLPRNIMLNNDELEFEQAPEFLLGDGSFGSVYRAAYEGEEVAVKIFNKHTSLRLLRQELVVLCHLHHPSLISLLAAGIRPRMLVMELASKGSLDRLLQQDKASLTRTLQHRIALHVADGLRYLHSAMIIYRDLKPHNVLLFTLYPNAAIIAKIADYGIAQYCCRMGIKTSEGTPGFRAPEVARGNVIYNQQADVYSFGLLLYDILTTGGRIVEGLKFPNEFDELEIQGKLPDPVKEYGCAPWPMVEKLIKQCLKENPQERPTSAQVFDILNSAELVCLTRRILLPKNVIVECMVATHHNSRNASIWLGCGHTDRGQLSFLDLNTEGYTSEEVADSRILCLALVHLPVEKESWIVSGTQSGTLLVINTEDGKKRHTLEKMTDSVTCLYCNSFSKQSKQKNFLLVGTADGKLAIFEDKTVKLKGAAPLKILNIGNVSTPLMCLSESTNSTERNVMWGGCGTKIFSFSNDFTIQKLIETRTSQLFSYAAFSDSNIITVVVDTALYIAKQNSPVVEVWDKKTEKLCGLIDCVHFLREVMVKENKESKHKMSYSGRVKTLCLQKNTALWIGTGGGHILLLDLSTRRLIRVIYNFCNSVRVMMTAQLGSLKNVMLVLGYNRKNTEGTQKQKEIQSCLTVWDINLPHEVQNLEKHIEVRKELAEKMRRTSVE
Tyrosine-protein kinase Fer (Homo sapiens), sequence (P16591 whole entry, looked up): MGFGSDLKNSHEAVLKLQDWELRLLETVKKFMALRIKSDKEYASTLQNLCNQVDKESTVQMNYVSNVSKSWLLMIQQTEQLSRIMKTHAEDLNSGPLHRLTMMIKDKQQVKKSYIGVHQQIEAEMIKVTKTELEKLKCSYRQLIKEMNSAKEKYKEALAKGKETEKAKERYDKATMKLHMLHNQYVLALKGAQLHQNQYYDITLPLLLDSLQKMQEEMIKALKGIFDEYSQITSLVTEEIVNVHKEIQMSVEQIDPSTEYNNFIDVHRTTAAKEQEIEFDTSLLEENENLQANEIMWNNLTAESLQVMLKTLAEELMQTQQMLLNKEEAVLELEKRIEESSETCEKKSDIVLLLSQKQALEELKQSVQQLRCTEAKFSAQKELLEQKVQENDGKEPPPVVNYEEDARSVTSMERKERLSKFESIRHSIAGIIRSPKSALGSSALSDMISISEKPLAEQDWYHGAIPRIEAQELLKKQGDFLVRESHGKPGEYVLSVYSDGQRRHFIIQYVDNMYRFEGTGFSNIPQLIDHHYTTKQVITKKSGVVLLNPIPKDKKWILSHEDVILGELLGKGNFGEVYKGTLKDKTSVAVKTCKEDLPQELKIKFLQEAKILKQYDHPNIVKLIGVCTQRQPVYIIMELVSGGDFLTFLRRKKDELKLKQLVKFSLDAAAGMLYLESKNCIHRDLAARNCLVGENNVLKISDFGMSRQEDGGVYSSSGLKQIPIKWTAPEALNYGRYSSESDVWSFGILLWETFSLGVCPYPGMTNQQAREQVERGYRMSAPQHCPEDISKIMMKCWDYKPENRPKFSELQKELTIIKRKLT
Casein kinase I isoform gamma-1 (Homo sapiens), sequence (Q9HCP0 whole entry, looked up, canonical isoform): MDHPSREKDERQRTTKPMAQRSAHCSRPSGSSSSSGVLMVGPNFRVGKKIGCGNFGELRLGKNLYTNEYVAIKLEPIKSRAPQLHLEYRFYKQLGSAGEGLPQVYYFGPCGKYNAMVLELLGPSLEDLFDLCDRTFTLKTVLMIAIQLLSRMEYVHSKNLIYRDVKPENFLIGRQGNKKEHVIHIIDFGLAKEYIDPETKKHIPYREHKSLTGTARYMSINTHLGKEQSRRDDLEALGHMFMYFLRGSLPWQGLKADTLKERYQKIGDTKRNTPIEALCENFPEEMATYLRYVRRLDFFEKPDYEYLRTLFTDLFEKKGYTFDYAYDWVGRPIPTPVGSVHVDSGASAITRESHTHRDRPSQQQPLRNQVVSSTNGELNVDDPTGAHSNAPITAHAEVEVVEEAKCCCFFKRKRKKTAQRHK
Protein-tyrosine kinase 6 (Homo sapiens), sequence (Q13882 whole entry, looked up, canonical isoform): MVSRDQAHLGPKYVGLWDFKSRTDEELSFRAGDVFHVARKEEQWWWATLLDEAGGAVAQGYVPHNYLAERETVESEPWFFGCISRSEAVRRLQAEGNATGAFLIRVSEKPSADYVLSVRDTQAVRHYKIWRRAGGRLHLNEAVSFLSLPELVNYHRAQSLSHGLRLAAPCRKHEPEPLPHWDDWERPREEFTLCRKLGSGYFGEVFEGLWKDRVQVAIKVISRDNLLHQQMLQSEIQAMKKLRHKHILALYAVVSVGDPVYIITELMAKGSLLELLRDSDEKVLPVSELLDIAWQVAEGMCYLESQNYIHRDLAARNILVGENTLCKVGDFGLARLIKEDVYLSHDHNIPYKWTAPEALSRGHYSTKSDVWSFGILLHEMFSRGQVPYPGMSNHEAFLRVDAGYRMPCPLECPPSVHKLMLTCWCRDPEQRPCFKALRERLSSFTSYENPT

| SMILES | inhibition (HT-29) | residual activity [1] [%] | residual activity [2] [%] | residual activity [3] [%] | residual activity [4] [%] | residual activity [5] [%] | residual activity [6] [%] | residual activity [7] [%] | residual activity [8] [%] | residual activity [9] [%] | residual activity [10] [%] | residual activity [11] [%] | residual activity [12] [%] | residual activity [13] [%] | residual activity [14] [%] |
| --- | --- | --- | --- | --- | --- | --- | --- | --- | --- | --- | --- | --- | --- | --- | --- |
| CC(C)S(=O)(=O)c1ccc2nccc(Nc3ccc4scnc4c3)c2c1 | Dose-Dependent Effect | 98.8 | 106 | 100 | 47.8 | 97.7 | 88.3 | 90.5 | 101 | 10.8 | 103 | 85.2 | 58.8 | 98.4 | 87.7 |
| Cc1cc(-c2cnc(N)c3c(-c4ccc5scnc5c4)csc23)n(C)n1 | Dose-Dependent Effect | 99.6 | 69.7 | 97.2 | 5.38 | 97.9 | 91.3 | 88.5 | 101 | 8.67 | 94.2 | 106 | 69.5 | 87.9 | 94.8 |
| CNC(=O)c1ccc2c(c1)ncn2-c1ccc(CC(=O)OC(C)(C)C)cc1 | Dose-Dependent Effect | 99.4 | 96.6 | 94.6 | 93.4 | 100 | 95.5 | 94.5 | 92.6 | 29.9 | 97.1 | 108 | 78.6 | 91.6 | 104 |
